Data as given in paper PMC2222991 (The Journal of General Physiology, 1999).

Legend:
[1] = test system: RTL1; assay: inside-out patch macroscopic current, Hill fit; type: cell-based, Bos taurus / Caenorhabditis elegans; settings: read-out: K 1/2; agonist; divalent-free solution pH 7.2; -80 or -100 mV; n = 4
[2] = test system: RTC; assay: inside-out patch macroscopic current, Hill fit; type: cell-based, Bos taurus / Caenorhabditis elegans; settings: read-out: K 1/2; agonist; divalent-free solution pH 7.2; -80 or -100 mV; n = 8
[3] = test system: ROPTL2; assay: inside-out patch macroscopic current, Hill fit; type: cell-based, Bos taurus / Caenorhabditis elegans / Ictalurus punctatus; settings: read-out: K 1/2; agonist; divalent-free solution pH 7.2; -80 or -100 mV; n = 4
[4] = test system: RTL2; assay: inside-out patch macroscopic current, Hill fit; type: cell-based, Bos taurus / Caenorhabditis elegans; settings: read-out: K 1/2; agonist; divalent-free solution pH 7.2; -80 or -100 mV; n = 4
[5] = test system: RTL; assay: inside-out patch macroscopic and single-channel currents, Hill fit; type: cell-based, Bos taurus / Caenorhabditis elegans; settings: read-out: K 1/2; agonist; divalent-free solution pH 7.2; -80 or -100 mV; n = 8
[6] = test system: TRC; assay: inside-out patch macroscopic current, Hill fit; type: cell-based, Caenorhabditis elegans / Bos taurus; settings: read-out: K 1/2; agonist; divalent-free solution pH 7.2; -80 or -100 mV; n = 4
[7] = test system: RTB; assay: inside-out patch macroscopic current, Hill fit; type: cell-based, Bos taurus / Caenorhabditis elegans; settings: read-out: K 1/2; agonist; divalent-free solution pH 7.2; -80 or -100 mV; n = 5
[8] = target: T1, TAX-4 (C. elegans tax-4 CNG channel subunit) (Caenorhabditis elegans, UniProt Q03611); assay: inside-out patch macroscopic current, Hill fit; type: cell-based
T1 sequence (Q03611 1-733): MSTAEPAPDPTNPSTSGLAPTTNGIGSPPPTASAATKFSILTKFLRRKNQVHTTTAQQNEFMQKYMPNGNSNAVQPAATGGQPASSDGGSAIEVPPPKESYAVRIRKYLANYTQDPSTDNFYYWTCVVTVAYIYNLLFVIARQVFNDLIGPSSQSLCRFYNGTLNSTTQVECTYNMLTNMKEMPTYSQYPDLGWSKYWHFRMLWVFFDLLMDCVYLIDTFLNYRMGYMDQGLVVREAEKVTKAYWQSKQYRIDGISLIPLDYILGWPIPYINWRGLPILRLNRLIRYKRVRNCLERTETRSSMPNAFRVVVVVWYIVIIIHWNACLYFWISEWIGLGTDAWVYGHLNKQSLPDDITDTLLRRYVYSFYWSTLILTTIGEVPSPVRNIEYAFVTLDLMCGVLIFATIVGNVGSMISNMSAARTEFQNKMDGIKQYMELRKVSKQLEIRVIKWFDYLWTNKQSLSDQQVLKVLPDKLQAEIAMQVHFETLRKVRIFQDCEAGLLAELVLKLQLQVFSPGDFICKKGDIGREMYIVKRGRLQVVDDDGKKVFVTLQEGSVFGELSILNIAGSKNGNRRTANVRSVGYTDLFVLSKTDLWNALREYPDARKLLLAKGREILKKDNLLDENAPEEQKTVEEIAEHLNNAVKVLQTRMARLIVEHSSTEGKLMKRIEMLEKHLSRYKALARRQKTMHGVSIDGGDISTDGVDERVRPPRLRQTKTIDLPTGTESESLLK

- EC50 [1]: 24 µM
- EC50 [2]: 1.3 µM
- EC50 [3]: 3 µM
- EC50 [4]: 4 µM
- EC50 [5]: 1 µM
- EC50 [6]: 4.7 µM
- EC50 [7]: 63 µM
- EC50 [8]: 0.4 µM
Structure (SMILES): Nc1nc2c(ncn2[C@@H]2O[C@@H]3COP(=O)(O)O[C@H]3[C@H]2O)c(=O)[nH]1 [cGMP]
